Measured values taken from patent US9364480B2, “Pharmaceutical composition for preventing or treating cancer, containing enoblock as active ingredient” (GWANGJU INSTITUTE OF SCIENCE AND TECHNOLOGY, priority 2012, dated 2016).

Legend:
[1] = molecular target: T1, Enolase purified from rabbit muscle (Oryctolagus cuniculus, UniProt P25704); test: Enolase activity assay; type: biochemical; conditions: purified enolase
T1 construct: Enolase purified from rabbit muscle was purchased from Sigma-Aldrich; purchased Sigma-Aldrich; host or cells: rabbit muscle
T1 sequence (P25704 whole entry): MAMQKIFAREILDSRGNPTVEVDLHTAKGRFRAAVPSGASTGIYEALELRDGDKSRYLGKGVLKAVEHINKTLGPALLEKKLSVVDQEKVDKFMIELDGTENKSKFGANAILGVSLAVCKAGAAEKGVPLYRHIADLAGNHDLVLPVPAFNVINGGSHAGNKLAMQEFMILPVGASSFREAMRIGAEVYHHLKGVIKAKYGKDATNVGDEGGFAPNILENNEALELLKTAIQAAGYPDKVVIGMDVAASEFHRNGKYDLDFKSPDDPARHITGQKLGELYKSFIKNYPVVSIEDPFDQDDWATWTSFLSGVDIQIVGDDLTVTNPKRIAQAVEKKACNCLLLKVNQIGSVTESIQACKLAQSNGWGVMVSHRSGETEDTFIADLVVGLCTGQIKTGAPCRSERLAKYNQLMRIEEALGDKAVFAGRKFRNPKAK
Protocol: FIG. 4. […] (a) Affinity chromatography study for ENOblock in HCT116 cancer cells. […] (b) Sequence identification for the enolase monomer subunit. […] Mascot scores above 100 were deemed to be significant. […] Twenty micrograms of cell lysate from YD-10B oral cancer cells or Huh7 hepatocytes were used as positive controls. […] As a positive control, ENOblock affinity matrix was incubated with 200 μg of HCT 116 cell lysate; 50 μg cell lysate from HCT116 cancer cells was used as a positive control for the enolase antibody.
Enolase purified from rabbit muscle was purchased from Sigma-Aldrich. A single unit of enolase is defined as the amount of enzyme that produces 1 μmol of phosphoenol pyruvate from phospho-D-glycerate/min in standard assay.^52 Enolase activity assay was measured at 37° C. by incubating pure enolase (3-9 U) in a buffer containing 50 mM imidazole-HCl (pH 6.8)(JUNSEI), 2.0 mM MgSO4 (JUNSEI) and 400 mM KCl (JUNSEI) in the absence or presence of ENOblock or NaF (Sigma). The reaction was initiated by adding 1 μmol of 2-phospho-D-glycerate, and the OD was measured after 10 min of reaction time with a spectrophometer at 240 nm.

zebrafish larvae = test: Measurement of glucose uptake in zebrafish (2-NBDG); type: in vivo; conditions: 10 μg/mL
Protocol: FIG. 12. […] (a) Schematic of our approach to measure the effect of ENOblock treatment on […] in zebrafish.
At 72 hpf, larvae were placed into a 96-well plate (6 eggs/well in 200 μL E3 water supplemented with 0.2 mM 2-phenylthiourea; Sigma). Drug of interest was added for […]. The solution was then replaced with E3 water supplemented with 600 μM 2-NBDG and incubated for 3 h. The larva were washed with E3 water and anesthetized with 0.02% tricaine-supplemented E3 water. One larva was then placed on a chamber slide, containing 3% methylcellulose in E3 water, for fluorescent microscopy (Leica DM2500 microscope equipped with a DFC425 C digital camera). Images were captured at 50× magnification. The remaining 5 larvae where lysed with 120 μL of CelLytic M solution (Sigma-Aldrich) and sonication (4° C., 10″/5″ pulse, 10 min). Lysed larvae were centrifuged at 10000 rpm for 10 min. 100 μL of the supernatant was transferred to a 96-well plate and fluorescence was measured with a fluorescent microplate reader (SpectraMAX Gemini XS, Molecular Devices; λex=466 nm […]).

[2] = molecular target: recombinant enolase from Schistosoma mansoni (Schistosoma mansoni, UniProt Q27877); conditions: cited from earlier work
recombinant enolase from Schistosoma mansoni, sequence (Q27877 whole entry): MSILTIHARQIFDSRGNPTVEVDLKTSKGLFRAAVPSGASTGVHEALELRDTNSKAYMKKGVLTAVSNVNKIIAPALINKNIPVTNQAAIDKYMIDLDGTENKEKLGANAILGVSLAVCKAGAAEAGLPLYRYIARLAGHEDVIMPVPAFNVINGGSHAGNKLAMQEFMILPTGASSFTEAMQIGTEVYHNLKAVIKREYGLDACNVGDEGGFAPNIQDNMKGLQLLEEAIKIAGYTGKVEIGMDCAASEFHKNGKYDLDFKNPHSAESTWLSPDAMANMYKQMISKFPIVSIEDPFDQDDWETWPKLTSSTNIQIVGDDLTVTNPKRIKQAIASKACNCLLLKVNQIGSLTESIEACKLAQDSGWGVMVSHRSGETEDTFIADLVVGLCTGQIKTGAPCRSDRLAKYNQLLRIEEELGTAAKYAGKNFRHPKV

purified enolase = purified enolase (Schistosoma mansoni, UniProt Q27877); conditions: cited from earlier work
purified enolase, sequence (Q27877 whole entry): as above

[3] = tested on: PEPCK expression in HEK cells; test: PEPCK expression in kidney cells; type: cell-based; conditions: 1 μg/mL, 24 h
Description: FIG. 10. […] Error=SD; *=P<0.05 compared to the no drug (DMSO-treated) group. […] Error=SD; *=P<0.05 for reduced PEPCK expression compared to the no drug (DMSO-treated) group.

[4] = tested on: pre-adipocytes undergoing adipogenesis; test: Adipogenesis lipid accumulation (Oil Red O staining); type: cell-based; conditions: without adipogenesis-inducing factors

With `[F-].[Na+]` [NaF, sodium fluoride, reference compound] the “treatment concentration giving enolase activity level approximated by 2.5 μM ENOblock” value [1] was 1 mM.

In the case of `Cc1cc(O)c2c(c1)C(=O)c1cc(O)cc(O)c1C2=O` [emodin, 6-methyl-1,3,8-trihydroxyanthraquinone, reference compound], the “glucose uptake in larvae (2-NBDG fluorescence microscopy)” value (zebrafish larvae) is reported as “enhanced glucose uptake in a similar but more intense pattern compared to the zebrafish treated with ENOblock” and the “2-NBDG fluorescence signal intensity in the eye” value (zebrafish larvae; 72 hpf larvae, 4 h, vs 2-NBDG alone) is reported as “induced significantly greater fluorescent tagged glucose uptake in the zebrafish eye”.

For `OC(c1cc(C(F)(F)F)nc2c(C(F)(F)F)cccc12)C1CCCCN1` (stereo not shown) [mefloquine], the “direct binding to recombinant enolase” value [2] is listed as “could not directly bind to recombinant enolase from this parasite” and the “inhibition of purified enolase activity” value (purified enolase) is listed as “could not inhibit purified enolase activity”.

With insulin: insulin the PEPCK expression [3] was “did not reduce PEPCK expression” and the “lipid accumulation in preadipocytes (Oil Red O, microscopy)” value [4] was “still induced lipid accumulation”.
